The text below walks through data of US10030016B2 (Sunesis Pharmaceuticals, Inc., priority 2009, dated 2018).

Structures can show the parent of a compound that is named as a salt. Where two headings read alike, the source gives them in different places.

For experiment [1], the target named is PDK1 (Homo sapiens (Human), UniProt O15530). In words: PDK1 kinase assay (coupled PDK1/AKT/FAM-crosstide assay, IMAP fluorescence polarization). Format: biochemical. Summed up: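 GST-tagged PDK1 (aa 51-359, 0.75 nM) was coupled to unphosphorylated GST-AKT2 140-467-PIFtide (10 nM) and 100 nM FAM-crosstide at 40 μM ATP, in Tris pH 7.2 buffer, for 30 min at 25 °C. Crosstide phosphorylation was read by IMAP fluorescence polarization (ΔmP) and fitted with a 4-parameter curve.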
Sequence of PDK1 (O15530 51-359): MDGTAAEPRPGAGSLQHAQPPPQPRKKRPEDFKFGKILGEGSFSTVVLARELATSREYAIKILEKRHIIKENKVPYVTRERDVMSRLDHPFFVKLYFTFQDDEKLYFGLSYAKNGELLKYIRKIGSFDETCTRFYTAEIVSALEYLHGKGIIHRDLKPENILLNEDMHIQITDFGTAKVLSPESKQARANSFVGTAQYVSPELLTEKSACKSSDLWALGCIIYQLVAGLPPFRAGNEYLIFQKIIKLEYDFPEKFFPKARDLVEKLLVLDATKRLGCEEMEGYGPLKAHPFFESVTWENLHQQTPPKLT

For experiment [2], the system named is phospho-akt (Thr308) in PC-3 cells. In words: Inhibition of phospho-akt (Thr308) in PC-3 cells, MSD phospho-akt 308 ELISA kit. The class given is cell-based. The conditions noted are these: Homo sapiens, 2 hours, no serum, read-out: EC50. Summed up: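 Serum-free 2 h compound exposure of overnight-seeded PC-3 cells, threefold dilution series; lysates analysed on blocked MSD plates (3% BSA) for Thr308-phosphorylated Akt, normalised between DMSO and 5 μM wortmannin wells.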

Setting [3] is: inhibition of P308 Akt in PC-3 cells using MSD.
[4] abbreviates: inhibition of phospo-PDK1 in vitro.
The mark [5] stands for this setting: inhibition of P308 Akt in PC-3 cells, MSD.

For `C[C@H](NC(=O)c1nc(C#N)cnc1NCc1ccc(-c2cnc(N)c(O[C@@H]3CCNC3)n2)cc1)c1ccc(F)c(F)c1` [Example 161, 3-{4-[5-Amino-6-((R)-pyrrolidin-3-yloxy)-pyrazin-2-yl]-benzylamino}-6-cyano-pyrazine-2-carboxylic acid [(S)-1-(3,4-difluoro-phenyl)-ethyl]-amide], the IC50 in experiment [1] (inhibition of PDK1 in vitro) was below 100 nM. In addition, the EC50 in experiment [2] (setting [3]) was below 1000 nM.

Turning to `CC(C)Oc1cc(CNc2ncccc2C(=O)N(C)c2cccc(F)c2)cc(-c2c[nH]c3ncc(C(=O)NC4CC4)cc23)c1` [Example 4.1.8, N-cyclopropyl-3-{3-[({3-[(3-fluorophenyl)(methyl)carbamoyl]pyridin-2-yl}amino)methyl]-5-(propan-2-yloxy)phenyl}-1H-pyrrolo[2,3-b] pyridine-5-carboxamide], the IC50 in experiment [1] (setting [4]) is above 5000 nM. The EC50 in experiment [2] (setting [5]) was in the range of 1000 to 10000 nM.

`Cn1cc(-c2ccc(CNc3ncc(C(F)(F)F)cc3C(=O)Nc3ccc(F)cc3)cc2)c2c(N)ncnc21` [Example 323, 2-(4-(4-amino-7-methyl-7H-pyrrolo[2,3-d]pyrimidin-5-yl)benzylamino)-N-(4-fluorophenyl)-5-(trifluoromethyl)nicotinamide] came in with an IC50 in experiment [1] (inhibition of PDK1 in vitro) below 100 nM. The EC50 in experiment [2] (setting [3]) was below 1000 nM.

Consider `Nc1ncnc2ccc(-c3ccc(CNc4nccnc4C(=O)NCc4ccc(F)c(F)c4)s3)cc12` [Ex. 10.1], for which the half-inhibitory concentration (IC50) in experiment [1] (setting [4]) was below 100 nM. Also, the concentration giving a half-maximal response (EC50) in experiment [2] (setting [5]) was 1000 to 10000 nM.

For the compound `Nc1n[nH]c2ncc(-c3ccc(CNc4ncc(C(F)(F)F)cc4C(=O)NCc4ccc(F)c(Cl)c4)cc3)cc12` [Example 286], in experiment [1] (inhibition of PDK1 in vitro), the IC50 is below 100 nM. In addition, in experiment [2] (setting [3]), the EC50 was below 1000 nM.

In the case of `NCCNc1n[nH]c2ncc(-c3ccc(CNc4ncc(C(F)(F)F)cc4C(=O)Nc4ccc(F)cc4)cc3)cc12` [Example 154, 2-(4-(3-(2-amino-ethylamino)-1H-pyrazolo [3,4-b]pyridin-5-yl)benzylamino)-N-(4-fluorophenyl)-5-(trifluoromethyl) nicotinamide], in experiment [1] (inhibition of PDK1 in vitro), the IC50 was below 100 nM. Also, the EC50 in experiment [2] (setting [3]) was below 1000 nM.

With `N#Cc1cnc(NCc2ccc(-c3ccc4ncnc(N)c4c3)s2)c(C(=O)NCc2ccc(F)c(F)c2)c1` [Ex. 8.8.1, 2-(((5-(4-aminoquinazolin-6-yl)thiophen-2-yl)methyl)amino)-5-cyano-N-(3,4-difluorobenzyl)nicotinamide], the IC50 in experiment [1] (setting [4]) is below 100 nM. For the same compound, the EC50 in experiment [2] (setting [5]) is below 1000 nM.

For `Nc1ncnc2ccc(-c3ccc(CNc4ncccc4C(=O)NCc4cc(F)cc(F)c4)s3)cc12` [Example 3.39, 2-({[5-(4-aminoquinazolin-6-yl)thiophen-2-yl]methyl}amino)-N-(3,5-difluorobenzyl) pyridine-3-carboxamide (TFA salt)], the IC50 in experiment [1] (setting [4]) was below 100 nM. Moreover, the EC50 in experiment [2] (setting [5]) was below 1000 nM.

Compound `N#Cc1cnc(NCc2ccc(Oc3cc(N)ncn3)cc2)c(C(=O)NCc2ccc(F)c(F)c2)c1` [Example 314, 2-(4-(6-aminopyrimidin-4-yloxy)benzylamino)-5-cyano-N-(3,4-difluorobenzyl)nicotinamide] displayed an IC50 in experiment [1] (inhibition of PDK1 in vitro) of 1000 to 5000 nM. Besides, the EC50 in experiment [2] (setting [3]) is above 10000 nM.

As to `C[C@H](NC(=O)c1nc(C#N)cnc1NCc1ccc(-c2c[nH]c3ncnc(N)c23)cc1)c1ccc(F)c(F)c1` [Example 315, (S)-3-(4-(4-amino-7H-pyrrolo[2,3-d]pyrimidin-5-yl)benzylamino)-6-cyano-N-(1-(3,4-difluoro-phenyl)ethyl)pyrazine-2-carboxamide], the IC50 in experiment [1] (inhibition of PDK1 in vitro) is below 100 nM. Besides, in experiment [2] (setting [3]), the 50% effective concentration (EC50) was below 1000 nM.

With `CNS(=O)(=O)c1cnc(NCc2ccc(-c3ccc4ncnc(N)c4c3)s2)c(C(=O)NCc2ccc(F)c(F)c2)c1` [Ex. 8.7.1, 2-(((5-(4-aminoquinazolin-6-yl)thiophen-2-yl)methyl)amino)-N-(3,4-difluorobenzyl)-5-(N-methylsulfamoyl)nicotinamide], the half-maximal inhibitory concentration (IC50) in experiment [1] (setting [4]) lay in the range of 100 to 1000 nM. The half-maximal effective concentration (EC50) in experiment [2] (setting [5]) was below 1000 nM.

In experiment [1] (setting [4]), `C[C@H](NC(=O)c1cc(C(F)(F)F)cnc1NCc1ccc(-c2ccc3ncc4ncn(C)c4c3c2)s1)c1ccc(F)c(F)c1` [Example 2.27, (S)-5-trifluoromethyl-N-(1-(3,4-difluorophenyl)ethyl)-2-(((5-(1-methyl-1H-imidazo[4,5-c]quinolin-8-yl)thiophen-2-yl)methyl)amino)nicotinamide] displayed a concentration for half-maximal inhibition (IC50) below 100 nM. Also, the EC50 in experiment [2] (setting [5]) was below 1000 nM.

In turn, `CC(C)Oc1cc(CNc2ncccc2C(=O)NCc2ccc(F)c(F)c2)cc(-c2ccc3ncnc(NC4CC4)c3c2)c1` [Example 5.5, 2-(3-(4-(cyclopropylamino)quinazolin-6-yl)-5-isopropoxy-benzylamino)-N-(3,4-difluorobenzyl)nicotinamide] showed an IC50 in experiment [1] (setting [4]) below 100 nM. Also, the EC50 in experiment [2] (setting [5]) is above 10000 nM.
